Results as given in ChEMBL document CHEMBL1136905, “Substituted isoxazole analogs of farnesoid X receptor (FXR) agonist GW4064” (Bioorg Med Chem Lett, 2009).

How the values were obtained:
[1] = target: T1, Bile acid receptor (Homo sapiens) (UniProt Q96RI1); experiment: Agonist activity at human FXR transfected in african green monkey CV1 cells by luciferase reporter gene transient transfection assay relative to GW-4064; assay type: functional, cell-based; details: CV-1
T1 sequence (whole entry): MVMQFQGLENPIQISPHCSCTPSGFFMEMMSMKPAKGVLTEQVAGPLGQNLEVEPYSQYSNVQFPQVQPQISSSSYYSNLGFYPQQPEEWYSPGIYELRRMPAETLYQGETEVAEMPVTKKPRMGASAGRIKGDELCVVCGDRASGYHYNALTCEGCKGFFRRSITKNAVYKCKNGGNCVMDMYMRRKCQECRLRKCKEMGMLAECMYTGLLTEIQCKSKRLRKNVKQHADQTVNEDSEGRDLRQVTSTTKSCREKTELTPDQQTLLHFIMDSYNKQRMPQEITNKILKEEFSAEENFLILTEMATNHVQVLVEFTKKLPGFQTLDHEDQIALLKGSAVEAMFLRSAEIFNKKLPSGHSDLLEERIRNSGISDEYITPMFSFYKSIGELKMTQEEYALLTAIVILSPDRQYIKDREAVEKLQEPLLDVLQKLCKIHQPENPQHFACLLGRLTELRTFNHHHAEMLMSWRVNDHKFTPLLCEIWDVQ

[2] = target: T2, Bile acid receptor (Homo sapiens, UniProt Q96RI1); experiment: Agonist activity at human FXR transfected in african green monkey CV1 cells by luciferase reporter gene transient transfection assay; assay type: functional, cell-based, CV-1
T2 sequence (Q96RI1 whole entry): T1 sequence (whole entry)

[3] = target: T1, Bile acid receptor (Homo sapiens); experiment: Agonist activity at human FXR assessed as SRC1 peptide interaction with receptor ligand binding domain by FRET assay relative to GW-4064
[4] = target: T2, Bile acid receptor; experiment: Agonist activity at human FXR assessed as SRC1 peptide interaction with receptor ligand binding domain by FRET assay
[5] = target: T2, Bile acid receptor; experiment: Agonist activity at human FXR assessed as SRC1 coactivator peptide recruitment by cell free FRET assay; assay type: functional
[6] = Volume of distribution at steady state in iv dosed rat; assay type: ADME, organism-based; details: in vivo, read-out: Vdss
[7] = Terminal half life in iv dosed rat; assay type: ADME, organism-based; details: in vivo, read-out: beta t1/2
[8] = Total clearance in iv dosed rat; assay type: ADME, organism-based; details: in vivo
[9] = Oral bioavailability in rat; assay type: ADME, organism-based; details: in vivo

SMILES	%max [1]	EC50 [2]	%max [3]	EC50 [4]	EC50 [5]	Vd [6]	half-life [7]	clearance [8]	bioavailability [9]
CC(C)c1onc(COc2cccc(Cl)c2Cl)c1COc1ccc(/C=C/c2cccc(C(=O)O)c2)c(Cl)c1	38%	0.63 µM	82%	0.48 µM	–	–	–	–	–
CC(C)c1onc(Cc2ccccc2)c1COc1ccc(/C=C/c2cccc(C(=O)O)c2)c(Cl)c1	120%	0.23 µM	67%	0.55 µM	–	–	–	–	–
CC(C)c1onc(COc2ccccc2Cl)c1COc1ccc(/C=C/c2cccc(C(=O)O)c2)c(Cl)c1	71%	–	82%	0.46 µM	0.082 µM	–	–	–	–
CC(C)c1onc(COc2cccc3ccccc23)c1COc1ccc(/C=C/c2cccc(C(=O)O)c2)c(Cl)c1	34%	1.2 µM	79%	0.96 µM	–	–	–	–	–
CC(C)c1onc(COc2cc(Cl)cc(Cl)c2)c1COc1ccc(/C=C/c2cccc(C(=O)O)c2)c(Cl)c1	–	–	40%	1.1 µM	> 10 µM	–	–	–	–
CCC(CC)c1onc(-c2c(Cl)cccc2Cl)c1COc1ccc(/C=C/c2cccc(C(=O)O)c2)c(Cl)c1	71%	–	82%	2.2 µM	0.28 µM	–	–	–	–
CC(C)c1onc(COc2cc(Cl)ccc2Cl)c1COc1ccc(/C=C/c2cccc(C(=O)O)c2)c(Cl)c1	37%	0.9 µM	83%	1 µM	–	–	–	–	–
CC(C)c1onc(COc2ccc3ccccc3c2)c1COc1ccc(/C=C/c2cccc(C(=O)O)c2)c(Cl)c1	27%	2.3 µM	65%	0.93 µM	–	–	–	–	–
CC(C)c1onc([C@H]2C[C@@H]2c2c(Cl)cccc2Cl)c1COc1ccc(/C=C/c2cccc(C(=O)O)c2)c(Cl)c1 (relative stereo)	–	–	38%	2 µM	> 10 µM	–	–	–	–
O=C(O)c1cccc(/C=C/c2ccc(OCc3c(-c4c(Cl)cccc4Cl)noc3C3CCCC3)cc2Cl)c1	75%	0.24 µM	81%	0.56 µM	–	–	–	–	–
CC(C)c1onc(CO)c1COc1ccc(/C=C/c2cccc(C(=O)O)c2)c(Cl)c1	–	> 10 µM	22%	7.8 µM	–	–	–	–	–
CC(C)c1onc(COc2ccc(Cl)cc2Cl)c1COc1ccc(/C=C/c2cccc(C(=O)O)c2)c(Cl)c1	39%	0.69 µM	72%	0.62 µM	–	–	–	–	–
CC(C)c1onc(COc2ccc(Cl)c(Cl)c2)c1COc1ccc(/C=C/c2cccc(C(=O)O)c2)c(Cl)c1	–	–	57%	1.1 µM	> 10 µM	–	–	–	–
CC(C)c1onc(CCCc2ccccc2)c1COc1ccc(/C=C/c2cccc(C(=O)O)c2)c(Cl)c1	68%	1.2 µM	44%	4.4 µM	–	–	–	–	–
CC(C)c1onc(COc2ccccc2)c1COc1ccc(/C=C/c2cccc(C(=O)O)c2)c(Cl)c1	27%	1.2 µM	55%	1.1 µM	–	–	–	–	–
CC(C)c1onc(COc2c(F)cccc2F)c1COc1ccc(/C=C/c2cccc(C(=O)O)c2)c(Cl)c1	112%	0.72 µM	100%	2.2 µM	–	–	–	–	–
CC(C)c1onc(-c2c(Cl)cccc2Cl)c1COc1ccc(/C=C/c2cccc(C(=O)O)c2)c(Cl)c1	100%	–	100%	–	–	–	–	36 mL/min/kg	–
CC(C)c1onc(CSc2nnnn2C)c1COc1ccc(/C=C/c2cccc(C(=O)O)c2)c(Cl)c1	45%	2.1 µM	59%	0.93 µM	–	–	–	–	–
CC(C)c1onc(COC(C)(C)C)c1COc1ccc(/C=C/c2cccc(C(=O)O)c2)c(Cl)c1	132%	0.6 µM	77%	0.66 µM	–	–	–	–	–

The remaining lines, values ahead:

%max [1]	EC50 [2]	%max [3]	EC50 [4]	EC50 [5]	Vd [6]	half-life [7]	clearance [8]	bioavailability [9]	SMILES
31%	0.42 µM	68%	0.4 µM	–	–	–	–	–	CC(C)c1onc(CNc2c(Cl)cncc2Cl)c1COc1ccc(/C=C/c2cccc(C(=O)O)c2)c(Cl)c1
42%	–	51%	0.31 µM	2 µM	–	–	–	–	CC(C)c1onc(COc2cccc(Cl)c2)c1COc1ccc(/C=C/c2cccc(C(=O)O)c2)c(Cl)c1
89%	0.089 µM	102%	0.078 µM	–	1.2 L/kg	2.17 h	20 mL/min/kg	9.2%	CC(C)c1onc(COc2c(Cl)cccc2Cl)c1COc1ccc(/C=C/c2cccc(C(=O)O)c2)c(Cl)c1
110%	0.093 µM	96%	0.32 µM	–	–	–	–	–	CC(C)c1onc(CCc2ccccc2)c1COc1ccc(/C=C/c2cccc(C(=O)O)c2)c(Cl)c1
86%	0.1 µM	110%	0.051 µM	–	–	–	–	–	CC(C)c1onc(CSc2c(Cl)cccc2Cl)c1COc1ccc(/C=C/c2cccc(C(=O)O)c2)c(Cl)c1
121%	0.29 µM	103%	0.074 µM	–	–	–	–	–	CC(C)c1onc(COc2c(F)cccc2Cl)c1COc1ccc(/C=C/c2cccc(C(=O)O)c2)c(Cl)c1
68%	0.2 µM	101%	0.058 µM	–	–	–	–	–	CC(C)c1onc(COc2c(Cl)cc(Cl)cc2Cl)c1COc1ccc(/C=C/c2cccc(C(=O)O)c2)c(Cl)c1
56%	–	112%	0.087 µM	0.54 µM	1.4 L/kg	2.33 h	15 mL/min/kg	1.9%	CC(C)c1onc(COc2c(Cl)cc(F)cc2Cl)c1COc1ccc(/C=C/c2cccc(C(=O)O)c2)c(Cl)c1
104%	0.048 µM	105%	0.15 µM	–	–	–	–	–	CC(C)c1onc(CCc2c(Cl)cccc2Cl)c1COc1ccc(/C=C/c2cccc(C(=O)O)c2)c(Cl)c1
99%	0.29 µM	96%	0.19 µM	–	–	–	–	–	CC[C@H](C)c1onc(-c2c(Cl)cccc2Cl)c1COc1ccc(/C=C/c2cccc(C(=O)O)c2)c(Cl)c1
111%	0.15 µM	106%	0.048 µM	–	–	–	–	–	Cc1cccc(Cl)c1OCc1noc(C(C)C)c1COc1ccc(/C=C/c2cccc(C(=O)O)c2)c(Cl)c1
95%	0.3 µM	106%	0.11 µM	–	–	–	–	–	CC(C)c1onc(COc2c(F)cc(F)cc2F)c1COc1ccc(/C=C/c2cccc(C(=O)O)c2)c(Cl)c1
68%	0.39 µM	100%	0.15 µM	–	–	–	–	–	CC(C)c1onc(CS(=O)(=O)c2c(Cl)cccc2Cl)c1COc1ccc(/C=C/c2cccc(C(=O)O)c2)c(Cl)c1
100%	0.14 µM	67%	0.41 µM	–	–	–	–	–	O=C(O)c1cccc(/C=C/c2ccc(OCc3c(-c4c(Cl)cccc4Cl)noc3C3CCC3)cc2Cl)c1
118%	0.056 µM	110%	0.017 µM	–	–	–	–	–	Cc1cccc(C)c1OCc1noc(C(C)C)c1COc1ccc(/C=C/c2cccc(C(=O)O)c2)c(Cl)c1
105%	0.093 µM	100%	0.105 µM	–	–	–	–	–	CC[C@@H](C)c1onc(-c2c(Cl)cccc2Cl)c1COc1ccc(/C=C/c2cccc(C(=O)O)c2)c(Cl)c1
70%	0.14 µM	104%	0.072 µM	–	2.1 L/kg	2.33 h	16 mL/min/kg	2.6%	CC(C)c1onc(CNc2c(Cl)cccc2Cl)c1COc1ccc(/C=C/c2cccc(C(=O)O)c2)c(Cl)c1
53%	1.3 µM	58%	0.45 µM	–	–	–	–	–	CC(C)c1onc(COc2ccc(Cl)cc2)c1COc1ccc(/C=C/c2cccc(C(=O)O)c2)c(Cl)c1
66%	0.11 µM	99%	0.13 µM	–	–	–	–	–	Cc1cc(Cl)cc(C)c1OCc1noc(C(C)C)c1COc1ccc(/C=C/c2cccc(C(=O)O)c2)c(Cl)c1
88%	0.052 µM	97%	0.15 µM	–	1.1 L/kg	0.867 h	48 mL/min/kg	7.8%	CC(C)c1onc(-c2c(Cl)cncc2Cl)c1COc1ccc(/C=C/c2cccc(C(=O)O)c2)c(Cl)c1
